This assay concerns human PGHS-2 protein expression in LPS stimulated human monocytes. Description: Prostoglandin endoperoxide synthase-2 (PGHS-2) assay. The class given is cell-based. The note with it: rank order potency similar to that for inhibiting cytokine production. As to the method: The following assay describes a method for determining the inhibitory effects of compounds of Formula (I) on human PGHS-2 protein expression in LPS stimulated human monocytes. Method: Human peripheral blood monocytes were isolated from buffy coats by centrifugation through Ficoll and Percoll gradients. Cells were seeded at 2×10^6 /well in 24 well plates and allowed to adhere for 1 hour in RPMI supplemented with 1% human AB serum, 20 mM L-glutamine, Penicillin-Streptomycin and 10 mM HEPES. Compounds were added at various concentrations and incubated at 37° C. for 10 minutes. LPS was added at 50 ng/well (to induce enzyme expression) and incubated overnight at 37° C. The supernatant was removed and cells washed once in cold PBS. The cells were lysed in 100 μl of cold lysis buffer(50 mM Tris/HCl pH 7.5, 150 mM NaCl, 1% NP40, 0.5% sodium deoxycholate, 0.1% SDS, 300 ug/ml DNAse, 0.1% TRITON X-100, 1 mM PMSF, 1 mM leupeptin, 1 mM pepstatin). The lysate was centrifuged (10,000×g for 10 min. at 4° C.) to remove debris and the soluble fraction was subjected to SDS PAGE. analysis (12% gel). Protein separated on the gel were transferred onto nitrocellulose membrane by electrophoretic means for 2 hours at 60 volts. The membrane was pretreated for one hour in PBS/0.1% Tween 20 with 5% non-fat dry milk. […]

On to `C[C@@H]1C[C@H]2[C@@H]3CCC4=CC(=O)C=C[C@]4(C)[C@@]3(F)[C@@H](O)C[C@]2(C)[C@@]1(O)C(=O)CO` [Dexamethasone], for which the “inhibition of LPS induced PGHS-2 protein expression” value was “active”.
In the case of `Fc1ccc(-c2nc3n(c2-c2ccncc2)CCS3)cc1` [6-(4-Fluorophenyl)-2,3-dihydro-5-(4-pyridinyl)imidazo[2,1-b]thiazole] it was “active”.

For the origin of these results see patent US5929076A, “Cycloalkyl substituted imidazoles” (SmithKline Beecham Corporation, priority 1998, dated 1999).
